# Measured values from patent US20170082610A1, “METHOD FOR PREDICTING TOXICITY OF A COMPOUND BASED ON NUCLEAR FACTOR-kB TRANSLOCATION” (priority 2014, published 2017).
# Read-outs that look alike come from different tables or passages of the source.
# Tests used:
# NF-κB p65 [1] = test: HCS assay of compound-induced NF-κB p65 nuclear translocation in HPTC1 (Example 3); type: cell-based, human; settings: for nuclear translocation of NF-κB (positive control sample): FIG. 9
# Excerpt: (§1) No. 58488852 (HPTC 1) and Lot. No. 61247356 (HPTC10), were bought from the American Type Culture Collection (ATCC, Manassas, Va., USA). HPTC6 were isolated from a nephrectomy sample obtained from the National University Health System (NUHS, Singapore). Only normal tissue without pathological changes was used, which was selected by a pathologist. […] No. PCS-400-030) supplemented with Renal Epithelial Cell Growth Kit (ATCC, Cat. No. PCS-400-040) and 1% Penicillin Streptomycin (Gibco, Cat. No. 15140-122). […] HK-2 and LLC-PK1cells were purchased from ATCC. These two cell lines were maintained in Dulbecco's Modified Eagle Medium (DMEM) supplemented with 10% fetal bovine serum (FBS) and 1% Penicillin Streptomycin. Approval for the work with human kidney samples (DSRB-E/11/143) and cell types (NUS-IRB Ref. Code: 09-[…]) had been obtained. All cells were incubated in a humidified atmosphere at 37° C. and 5% CO2. Cells were seeded into 384-well black plates with transparent bottom (Greiner, Cat. No. 781091). HPTC1 and HPTC6 were seeded at 50,000 cells/cm^2; HPTC10 were seeded at 100,000 cells/cm^2; HK-2 cells were seeded at 20,000 cells/cm^2 and LLC-PK1 cells were seeded at 10,000 cells/cm^2 to adjust for the different growth kinetics of the different cell types and batches used. All cells were cultivated for 3 days to achieve the formation of a differentiated simple epithelium before drug treatment overnight (16 hours). The concentrations of the 43 drugs screened were 1000, 500, 250, 125, 63, 16 and 1.6 μg/mL. Puromycin at 100 μg/mL and TNF-α at 100 ng/mL were used as positive controls. […] The images were automatically analysed by using MetaXpressTM image analysis software version 2.0 using the Translocation-Enhanced Module. […] The intensity ratios of the outer nuclear area versus the inner nuclear area were automatically quantified by the MetaXpressTM image analysis software (version 2.0). The final quantitative results for each data point were the average results from 36 images (4 replicates (wells) with 9 multi-channel images per well). […]
# HPTC1 = test: Cell death in HPTC1 by HCS, based on counts of cell nuclei (Example 3); design: species or system human; settings: HPTC1, 16 hours, 1.6-1000 μg/mL
# Excerpt: as §1, with “CO2.” for “CO2. Cells were seeded into 384-well black plates with transparent bottom (Greiner, Cat. No. 781091). HPTC1 and HPTC6 were seeded at 50,000 cells/cm^2; HPTC10 were seeded at 100,000 cells/cm^2; HK-2 cells were seeded at 20,000 cells/cm^2 and LLC-PK1 cells were seeded at 10,000 cells/cm^2 to adjust for the different growth kinetics of the different cell types and batches used. All cells were cultivated for 3 days to achieve the formation of a differentiated simple epithelium before drug treatment overnight (16 hours). The concentrations of the 43 drugs screened were 1000, 500, 250, 125, 63, 16 and 1.6 μg/mL. Puromycin at 100 μg/mL and TNF-α at 100 ng/mL were used as positive controls.”
# NF-κB p65 [2] = test: HCS assay of compound-induced NF-κB p65 nuclear translocation in HPTC (Example 2); type: cell-based, human
# [3] = HPTC, 16 hours, 1.6-1000 μg/mL, 96-well plates, HCS images
Compound,Qualitative analysis of NF-κB translocation (visual inspection) (NF-κB p65 [2]; [3]),also measured
C=CC[C@@H]1/C=C(\C)C[C@H](C)C[C@H](OC)[C@H]2O[C@@](O)(C(=O)C(=O)N3CCCC[C@H]3C(=O)O[C@H](/C(C)=C/[C@@H]3CC[C@@H](O)[C@H](OC)C3)[C@H](C)[C@@H](O)CC1=O)[C@H](C)C[C@@H]2OC [Tacrolimus],,"EC50 (compound concentration where nuclear translocation of NF-κB occurred in 50% of cells) (NF-κB p65 [1]; HPTC1, 16 hours, 1.6-1000 μg/mL): relatively low; IC50 (compound concentration where cell death occurred in 50% of cells; counts of cell nuclei) (HPTC1): relatively low"
C[n+]1ccc(-c2cc[n+](C)cc2)cc1 [paraquat],,Qualitative analysis of NF-κB translocation (visual inspection) (NF-κB p65 [2]): positive
[K+].[K+].[O]=[Cr](=[O])([O-])[O][Cr](=[O])(=[O])[O-] [potassium dichromate],positive,
[Cl][Au] [gold (I) chloride],positive,
O=[As]O[As]=O (stereo not shown) [arsenic (III) oxide],positive,
bismuth (III) oxide,positive,
TNF-α,,"nuclear translocation of NF-κB (positive control sample) (NF-κB p65 [1]; HPTC1, 100 ng/mL, 16 hours): displayed nuclear translocation of NF-κB"
COc1ccc(C[C@H](N)C(=O)N[C@H]2[C@@H](O)[C@H](n3cnc4c(N(C)C)ncnc43)O[C@@H]2CO)cc1 [puromycin],,"nuclear translocation of NF-κB (positive control sample) (NF-κB p65 [1]; HPTC1, 16 hours): displayed nuclear translocation of NF-κB"
CC(=O)[O-].CC(=O)[O-].[Pb+2] [lead acetate],positive,
